In patent US8758816B2, “Compositions comprising azelastine and methods of use thereof” (priority 2004, dated 2014):

System: patients with seasonal allergic rhinitis (SAR)
Assay: MP 428 study: individual symptom severity scores (runny nose, itchy nose, sneezing, congestion; 0-3 scale)
Format: in vivo, human
Conditions: Intent-to-Treat Population
Method: A two-week, randomized, double-blind study, which evaluated the effects of the co-administration of ASTELIN® (azelastine hydrochloride (HCl)) and FLONASE® (fluticasone propionate) compared to either product alone in patients with seasonal allergic rhinitis (SAR) was conducted during the 2006 Texas mountain cedar season. After a 5-day placebo lead-in period, 151 patients with moderate-to-severe allergic rhinitis symptoms were randomized to either: (1) (49 total patients) ASTELIN® (azelastine hydrochloride (HCl)) plus placebo saline nasal spray 2 sprays per nostril, 15 minutes apart, twice daily (AM & PM); (2) (50 total patients) FLONASE® (fluticasone propionate) plus placebo saline nasal spray, 2 sprays per nostril, 15 minutes apart, once daily (AM) and two sessions of placebo saline nasal spray, 2 sprays per nostril, 15 minutes apart (PM); or (3) (52 total patients) the co-administration of ASTELIN® (azelastine hydrochloride (HCl)) 2 sprays per nostril plus FLONASE® (fluticasone propionate) 2 sprays per nostril (AM), 15 minutes apart, and ASTELIN® (azelastine hydrochloride (HCl)) 2 sprays per nostril plus placebo saline nasal spray, 15 minutes apart, (PM) for a 2-week double-blind treatment period.
The primary efficacy variable was the change from baseline in the Total Nasal Symptom Score (TNSS), which comprised sneezing, itchy nose, runny nose, and nasal congestion (individual symptoms scores were assigned a value between 0 and 3, where 0=no symptoms and 3=severe symptoms). This study was not statistically designed to assess the differences between ASTELIN® and FLONASE®.
The results of the clinical trial are summarized and presented in Appendix A hereinbelow and in FIGS. 1-6. […] FIGS. 2-5 show the mean improvement in severity score (0-3 scale) from baseline for the symptoms of runny nose, itchy nose, sneezing and congestion, respectively.

CCC(=O)O[C@]1(C(=O)SCF)[C@H](C)C[C@H]2[C@@H]3C[C@H](F)C4=CC(=O)C=C[C@]4(C)[C@@]3(F)[C@@H](O)C[C@@]21C [Fluticasone, fluticasone propionate]
Percent Change from Baseline in AM and PM Combined Nasal Symptom Score: Congestion, LS Mean (Day 12): −26.02%
Percent Change from Baseline in AM and PM Combined Nasal Symptom Score: Congestion, Mean (Day 12): −27.05%
Percent Change from Baseline in AM and PM Combined Nasal Symptom Score: Congestion, Median (Day 12): −27.93%
Percent Change from Baseline in AM and PM Combined Nasal Symptom Score: Itchy Nose, LS Mean (Day 12): −29.96%
Percent Change from Baseline in AM and PM Combined Nasal Symptom Score: Itchy Nose, Mean (Day 12): −29.58%
Percent Change from Baseline in AM and PM Combined Nasal Symptom Score: Itchy Nose, Median (Day 12): −30.22%
Percent Change from Baseline in AM and PM Combined Nasal Symptom Score: Runny Nose, LS Mean (Day 12): −31.33%
Percent Change from Baseline in AM and PM Combined Nasal Symptom Score: Runny Nose, Mean (Day 12): −31.86%
Percent Change from Baseline in AM and PM Combined Nasal Symptom Score: Runny Nose, Median (Day 12): −25.62%
Percent Change from Baseline in AM and PM Combined Nasal Symptom Score: Sneezing, LS Mean (Day 12): −33.86%
Percent Change from Baseline in AM and PM Combined Nasal Symptom Score: Sneezing, Mean (Day 12): −31.18%
Percent Change from Baseline in AM and PM Combined Nasal Symptom Score: Sneezing, Median (Day 12): −35.69%
Change from Baseline in AM and PM Combined Nasal Symptom Score: Congestion, LS Mean (Day 13): −1.55
Change from Baseline in AM and PM Combined Nasal Symptom Score: Congestion, Mean (Day 13): −1.59
Change from Baseline in AM and PM Combined Nasal Symptom Score: Congestion, Median (Day 13): −1.43
Change from Baseline in AM and PM Combined Nasal Symptom Score: Itchy Nose, LS Mean (Day 13): −1.64
Change from Baseline in AM and PM Combined Nasal Symptom Score: Itchy Nose, Mean (Day 13): −1.62
Change from Baseline in AM and PM Combined Nasal Symptom Score: Itchy Nose, Median (Day 13): −1.42
Change from Baseline in AM and PM Combined Nasal Symptom Score: Runny Nose, LS Mean (Day 13): −1.78
Change from Baseline in AM and PM Combined Nasal Symptom Score: Runny Nose, Mean (Day 13): −1.78
Change from Baseline in AM and PM Combined Nasal Symptom Score: Runny Nose, Median (Day 13): −2.00
Change from Baseline in AM and PM Combined Nasal Symptom Score: Sneezing, LS Mean (Day 13): −1.98
Change from Baseline in AM and PM Combined Nasal Symptom Score: Sneezing, Mean (Day 13): −1.84
Change from Baseline in AM and PM Combined Nasal Symptom Score: Sneezing, Median (Day 13): −1.83
Percent Change from Baseline in AM and PM Combined Nasal Symptom Score: Congestion, LS Mean (Day 13): −28.59%
Percent Change from Baseline in AM and PM Combined Nasal Symptom Score: Congestion, Mean (Day 13): −28.95%
Percent Change from Baseline in AM and PM Combined Nasal Symptom Score: Congestion, Median (Day 13): −26.38%
Percent Change from Baseline in AM and PM Combined Nasal Symptom Score: Itchy Nose, LS Mean (Day 13): −31.14%
Percent Change from Baseline in AM and PM Combined Nasal Symptom Score: Itchy Nose, Mean (Day 13): −30.81%
Percent Change from Baseline in AM and PM Combined Nasal Symptom Score: Itchy Nose, Median (Day 13): −31.23%
Percent Change from Baseline in AM and PM Combined Nasal Symptom Score: Runny Nose, LS Mean (Day 13): −30.96%
Percent Change from Baseline in AM and PM Combined Nasal Symptom Score: Runny Nose, Mean (Day 13): −30.84%
Percent Change from Baseline in AM and PM Combined Nasal Symptom Score: Runny Nose, Median (Day 13): −33.33%
Percent Change from Baseline in AM and PM Combined Nasal Symptom Score: Sneezing, LS Mean (Day 13): −42.84%
Percent Change from Baseline in AM and PM Combined Nasal Symptom Score: Sneezing, Mean (Day 13): −40.87%
Percent Change from Baseline in AM and PM Combined Nasal Symptom Score: Sneezing, Median (Day 13): −35.42%
Change from Baseline in AM and PM Combined Nasal Symptom Score: Congestion, LS Mean (Day 14): −1.53
Change from Baseline in AM and PM Combined Nasal Symptom Score: Congestion, Mean (Day 14): −1.59
Change from Baseline in AM and PM Combined Nasal Symptom Score: Congestion, Median (Day 14): −1.30
Change from Baseline in AM and PM Combined Nasal Symptom Score: Itchy Nose, LS Mean (Day 14): −1.76
Change from Baseline in AM and PM Combined Nasal Symptom Score: Itchy Nose, Mean (Day 14): −1.74
Change from Baseline in AM and PM Combined Nasal Symptom Score: Itchy Nose, Median (Day 14): −1.57
Change from Baseline in AM and PM Combined Nasal Symptom Score: Runny Nose, LS Mean (Day 14): −1.89
Change from Baseline in AM and PM Combined Nasal Symptom Score: Runny Nose, Mean (Day 14): −1.88
Change from Baseline in AM and PM Combined Nasal Symptom Score: Runny Nose, Median (Day 14): −2.15
Change from Baseline in AM and PM Combined Nasal Symptom Score: Sneezing, LS Mean (Day 14): −1.87
Change from Baseline in AM and PM Combined Nasal Symptom Score: Sneezing, Mean (Day 14): −1.70
Change from Baseline in AM and PM Combined Nasal Symptom Score: Sneezing, Median (Day 14): −1.83
Percent Change from Baseline in AM and PM Combined Nasal Symptom Score: Congestion, LS Mean (Day 14): −28.37%
Percent Change from Baseline in AM and PM Combined Nasal Symptom Score: Congestion, Mean (Day 14): −29.09%
Percent Change from Baseline in AM and PM Combined Nasal Symptom Score: Congestion, Median (Day 14): −24.53%
Percent Change from Baseline in AM and PM Combined Nasal Symptom Score: Itchy Nose, LS Mean (Day 14): −33.39%
Percent Change from Baseline in AM and PM Combined Nasal Symptom Score: Itchy Nose, Mean (Day 14): −33.38%
Percent Change from Baseline in AM and PM Combined Nasal Symptom Score: Itchy Nose, Median (Day 14): −33.33%
Percent Change from Baseline in AM and PM Combined Nasal Symptom Score: Runny Nose, LS Mean (Day 14): −36.10%
Percent Change from Baseline in AM and PM Combined Nasal Symptom Score: Runny Nose, Mean (Day 14): −35.65%
Percent Change from Baseline in AM and PM Combined Nasal Symptom Score: Runny Nose, Median (Day 14): −41.75%
Percent Change from Baseline in AM and PM Combined Nasal Symptom Score: Sneezing, LS Mean (Day 14): −39.31%
Percent Change from Baseline in AM and PM Combined Nasal Symptom Score: Sneezing, Mean (Day 14): −36.07%
Percent Change from Baseline in AM and PM Combined Nasal Symptom Score: Sneezing, Median (Day 14): −33.94%
Change from Baseline in AM and PM Combined Nasal Symptom Score: Congestion, LS Mean (Overall (Day 2 to Day 14)): −1.14
Change from Baseline in AM and PM Combined Nasal Symptom Score: Congestion, Mean (Overall (Day 2 to Day 14)): −1.19
Change from Baseline in AM and PM Combined Nasal Symptom Score: Congestion, Median (Overall (Day 2 to Day 14)): −0.99
Change from Baseline in AM and PM Combined Nasal Symptom Score: Itchy Nose, LS Mean (Overall (Day 2 to Day 14)): −1.25
Change from Baseline in AM and PM Combined Nasal Symptom Score: Itchy Nose, Mean (Overall (Day 2 to Day 14)): −1.24
Change from Baseline in AM and PM Combined Nasal Symptom Score: Itchy Nose, Median (Overall (Day 2 to Day 14)): −0.95
Change from Baseline in AM and PM Combined Nasal Symptom Score: Runny Nose, LS Mean (Overall (Day 2 to Day 14)): −1.34
Change from Baseline in AM and PM Combined Nasal Symptom Score: Runny Nose, Mean (Overall (Day 2 to Day 14)): −1.36
Change from Baseline in AM and PM Combined Nasal Symptom Score: Runny Nose, Median (Overall (Day 2 to Day 14)): −1.04
Change from Baseline in AM and PM Combined Nasal Symptom Score: Sneezing, LS Mean (Overall (Day 2 to Day 14)): −1.52
Change from Baseline in AM and PM Combined Nasal Symptom Score: Sneezing, Mean (Overall (Day 2 to Day 14)): −1.44
Change from Baseline in AM and PM Combined Nasal Symptom Score: Sneezing, Median (Overall (Day 2 to Day 14)): −1.34
Percent Change from Baseline in AM and PM Combined Nasal Symptom Score: Congestion, LS Mean (Overall (Day 2 to Day 14)): −21.11%
Percent Change from Baseline in AM and PM Combined Nasal Symptom Score: Congestion, Mean (Overall (Day 2 to Day 14)): −21.68%
Percent Change from Baseline in AM and PM Combined Nasal Symptom Score: Congestion, Median (Overall (Day 2 to Day 14)): −18.72%
Percent Change from Baseline in AM and PM Combined Nasal Symptom Score: Itchy Nose, LS Mean (Overall (Day 2 to Day 14)): −25.54%
Percent Change from Baseline in AM and PM Combined Nasal Symptom Score: Itchy Nose, Mean (Overall (Day 2 to Day 14)): −25.67%
Percent Change from Baseline in AM and PM Combined Nasal Symptom Score: Itchy Nose, Median (Overall (Day 2 to Day 14)): −18.89%
Percent Change from Baseline in AM and PM Combined Nasal Symptom Score: Runny Nose, LS Mean (Overall (Day 2 to Day 14)): −23.02%
Percent Change from Baseline in AM and PM Combined Nasal Symptom Score: Runny Nose, Mean (Overall (Day 2 to Day 14)): −23.19%
Percent Change from Baseline in AM and PM Combined Nasal Symptom Score: Runny Nose, Median (Overall (Day 2 to Day 14)): −21.99%
Percent Change from Baseline in AM and PM Combined Nasal Symptom Score: Sneezing, LS Mean (Overall (Day 2 to Day 14)): −31.80%
Percent Change from Baseline in AM and PM Combined Nasal Symptom Score: Sneezing, Mean (Overall (Day 2 to Day 14)): −31.11%
Percent Change from Baseline in AM and PM Combined Nasal Symptom Score: Sneezing, Median (Overall (Day 2 to Day 14)): −33.13%
